In brackets after ≈: the same amount, converted by molar mass. Where two headings read alike, the source gives them in different places.
Tests used:
S. aureus (ATCC29213) = experiment: 50% growth inhibitory concentration (IC50) determination assay, S. aureus; format: cell-based; details: Staphylococcus aureus, ATCC29213; Iso-Sensitest broth, growth by OD 600 nm over 16 h; <0.098 = detection limit
In short: (§1)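 Compounds two-fold diluted from 50 to 0.097 μM (final) in Iso-Sensitest broth, inoculum ~5×10^5 CFU/mL. Incubation at 35±2 °C with OD600 read every 20 min over 16 h to track growth.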

[1] = tested on: multiple species and strains; experiment: microbe, parasite or virus in culture; design: MIC S9 / MIC S7 / MIC S11 / MIC S8 / MIC S10: unit not given beside the values; details: for MIC S9: E. coli ATCC 35218
In short: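 Broth microdilution per CLSI M07-A10 in CAMHB, CAMHB+3% lysed horse blood or HTM. Inoculum was set to OD600 ~0.1, then diluted 1:280 (Gram-positive) or 1:400 (Gram-negative), and plates were incubated 18-24 h at 35±2° C in ambient air. MIC (μg/mL) is the lowest concentration giving no visible growth.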

[2] = tested on: K. pneumoniae (ATCC10031); experiment: 50% growth inhibitory concentration (IC50) determination assay, K. pneumoniae; format: cell-based; details: Klebsiella pneumoniae, ATCC10031; Iso-Sensitest broth, growth by OD 600 nm over 16 h; <0.098 = detection limit
In short: as §1

[3] = Single dose PK study (SDPK) in female CD-1 mouse; format: in vivo; details: IV bolus, 1.0 mg/kg solution; for clearance: plasma, read-out: CL total
Description: The single dose PK in female CD-1 mouse was performed to assess compound's pharmacokinetic properties. One group of animals were dosed via bolus intravenous (IV) of the respective compound. Blood samples (approximately 30 μL) were collected via saphenous vein at 5 mins, 15 min, 30 min, 1 hr, 2 hr, 4 hr and 7 hr. For last time point (24 hr), samples were collected via cardiac puncture while the mouse was under anesthesia. Blood samples were placed into tubes containing EDTA-K2 anticoagulant (2 μL of 0.5M per tube) and centrifuged at 3000 rpm for 10 minutes at 4° C. within half an hour to separate plasma from the samples. Following centrifugation, plasma samples were stored in polypropylene tubes, quick frozen over dry ice and kept at −70±10° C. until LC/MS/MS analysis. The pharmacokinetic parameters were calculated using non-compartmental module of WinNonlin® Professional 6.4.

[4] = Cytotoxicity assay (HepG2, CellTiter-Blue); format: cell-based; details: human; HepG2 cells, 3 days treatment; >100 = detection limit
Description: The cytotoxicity of compounds of present invention was assessed by HepG2 assay. HepG2 cells (ATCC RB-8065™) were seeded into 96-well plates (1.2×10^4 cells per well) and treated with compounds for 3 days, cell viability was measured at day 3 post compound treatment using the CellTiter-Blue® Cell Viability Assay (Promega, Cat. No. G8082). […], of Cell titer blue buffer were added to each well of the cells, which were incubated for 3 hours at 37° C., and the fluorescence value was measured by a plate reader (Molecular Device SpectraMax M2). The CC50 value of each compound is plotted with GraphPad Prism using four parameter logistic equation.

[5] = Lyophilisation solubility assay (LYSA); format: physicochemical; details: aqueous buffer, thermodynamic from solid; 0.05 M phosphate buffer, pH 6.5; <1.0 = detection limit
Description: The solubility of compounds of present invention was assessed by LYSA assay. Samples were prepared in duplicate from 10 mM DMSO stock solutions (20 μL) diluted in 30 μL pure DMSO. After evaporation of DMSO with a centrifugal vacuum evaporator, the residue was dissolved in 0.05 M phosphate buffer (150 μL, pH 6.5), which was stirred for one hour and shook for two hours. After one night, the solution was filtered using a microtiter filter plate. Then the filtrate and its 1/10 dilution were analyzed by HPLC-UV. In addition a four-point calibration curve was prepared from the 10 mM stock solutions and used for the solubility determination of the compounds.

A. baumannii (ATCC17978) = experiment: 50% growth inhibitory concentration (IC50) determination assay, A. baumannii; format: cell-based; details: Acinetobacter baumannii, ATCC17978; Iso-Sensitest broth, growth by OD 600 nm over 16 h; <0.098 = detection limit
In short: as §1

[6] = Acinetobacter baumannii, ATCC19606, read-out: MIC S1, A. baumannii ATCC 19606
[7] = Acinetobacter baumannii, ATCC51432, read-out: MIC S2, A. baumannii ATCC 51432
[8] = Acinetobacter baumannii, ATCCBAA747, read-out: MIC S3, A. baumannii ATCC BAA-747
[9] = Escherichia coli, ATCC25922, read-out: MIC S11, E. coli ATCC 25922
[10] = Escherichia coli, ATCCBAA2340, read-out: MIC S10, E. coli ATCC BAA-2340
[11] = Klebsiella pneumoniae, ATCC10031, read-out: MIC S4, K. pneumoniae ATCC 10031
[12] = Klebsiella pneumoniae, ATCC700603, read-out: MIC S5, K. pneumoniae ATCC 700603
[13] = Klebsiella pneumoniae, ATCCBAA2146, read-out: MIC S6, K. pneumoniae ATCC BAA-2146
[14] = Pseudomonas aeruginosa, ATCC27853, read-out: MIC S7, P. aeruginosa ATCC 27853
[15] = Pseudomonas aeruginosa, ATCCBAA2113, read-out: MIC S8, P. aeruginosa ATCC BAA-2113

| SMILES | IC50 (S. aureus (ATCC29213)) | MIC [1, 6] | MIC [1, 7] | MIC [1, 8] | MIC S9 [1] | MIC [1, 9] | MIC [1, 10] | MIC [1, 11] | MIC [1, 12] | MIC [1, 13] | MIC [1, 14] | MIC [1, 15] | IC50 [2] | AUC total [3] | clearance [3] | CC50 at 3 days [4] | solubility thermodynamic [5] | IC50 (A. baumannii (ATCC17978)) |
| --- | --- | --- | --- | --- | --- | --- | --- | --- | --- | --- | --- | --- | --- | --- | --- | --- | --- | --- |
| CNc1cc(F)c(F)c2c1[nH]c1ncc(-c3ccc4ccc(C(=O)O)c(=O)n4c3)c(N3CCC4CN(C)C[C@@H]43)c12 (stereo in doubt) [Example 1.03, 7-[5,6-difluoro-4-(cis-5-methyl-2,3,3a,4,6,6a-hexahydropyrrolo[2,3-c]pyrrol-1-yl)-8-(methylamino)-9H-pyrido[2,3-b]indol-3-yl]-4-oxo-quinolizine-3-carboxylic acid] | < 98 nM | 0.26 µg/mL (≈ 0.477 µM) | 0.26 µg/mL (≈ 0.477 µM) | 0.13 µg/mL (≈ 0.239 µM) | 0.510 | 0.193 µg/mL (≈ 0.354 µM) | 2.06 µg/mL (≈ 3.78 µM) | 0.03 µg/mL (≈ 0.0551 µM) | 4.12 µg/mL (≈ 7.57 µM) | 2.06 µg/mL (≈ 3.78 µM) | 1.03 µg/mL (≈ 1.89 µM) | 2.06 µg/mL (≈ 3.78 µM) | < 98 nM | 374.7 ng·h/mL | 39.1 mL/min/kg | 21900 nM | 134 µg/mL (≈ 246 µM) | < 98 nM |
| CNc1cc(F)cc2c1[nH]c1ncc(-c3ccc4ccc(C(=O)O)c(=O)n4c3)c(N3CC[C@H]4CN(C)C[C@H]43)c12 (single isomer, unassigned) [Example 3.02A] | 102 nM |  |  |  |  |  |  |  |  |  |  |  | < 98 nM |  |  | 41300 nM | 559 µg/mL (≈ 1060 µM) | < 98 nM |
| CNc1cc(F)c(F)c2c1[nH]c1ncc(-c3ccc4c(CN5CCOCC5)cc(C(=O)O)c(=O)n4c3)c(N3CC[C@H]4CN(C)C[C@H]43)c12 (relative stereo) [Example 2.09, 7-[4-[cis-5-methyl-2,3,3a,4,6,6a-hexahydropyrrolo[2,3-c]pyrrol-1-yl]-5,6-difluoro-8-(methylamino)-9H-pyrido[2,3-b]indol-3-yl]-1-(morpholinomethyl)-4-oxo-quinolizine-3-carboxylic acid] | 174 nM |  |  |  |  |  |  |  |  |  |  |  | < 98 nM |  |  | 86900 nM | 795 µg/mL (≈ 1240 µM) | < 98 nM |
| CNc1cc(F)c(F)c2c1[nH]c1ncc(-c3ccc4ccc(C(=O)O)c(=O)n4c3)c(N3CC[C@H]4CN(C)C[C@H]43)c12 [Example 1.04, 7-[4-[(3aS,6aS)-5-methyl-2,3,3a,4,6,6a-hexahydropyrrolo[2,3-c]pyrrol-1-yl]-5,6-difluoro-8-(methylamino)-9H-pyrido[2,3-b]indol-3-yl]-4-oxo-quinolizine-3-carboxylic acid] | < 98 nM | 0.128 µg/mL (≈ 0.235 µM) | 0.128 µg/mL (≈ 0.235 µM) | 0.128 µg/mL (≈ 0.235 µM) | 0.128 | 0.048 µg/mL (≈ 0.0881 µM) | 0.258 µg/mL (≈ 0.474 µM) | 0.032 µg/mL (≈ 0.0588 µM) | 1.03 µg/mL (≈ 1.89 µM) | 1.03 µg/mL (≈ 1.89 µM) | 0.514 µg/mL (≈ 0.944 µM) | 2.06 µg/mL (≈ 3.78 µM) | < 98 nM | 256 ng·h/mL | 64.1 mL/min/kg | 15000 nM | 460 µg/mL (≈ 845 µM) | < 98 nM |

— US20210238197A1, “NOVEL OXOQUINOLIZINE COMPOUNDS FOR THE TREATMENT AND PROPHYLAXIS OF BACTERIAL INFECTION” (Hoffmann-La Roche Inc., priority 2018, published 2021)
